Literature values as cited in PubChem BioAssay AID1259409 (Chemical Carcinogenesis Research Information System (CCRIS), 2018).

Test system: rodent chemically induced tumor inhibition, incidence and multiplicity
Experiment: CCRIS tumor inhibitor studies
Conditions: Dose [Inhibitor]: 0, Species: MOUSE

Structure (SMILES): CC1=CCCC(C)(C)[C@H]1/C=C/C(C)=C/C=C/C(C)=C/C=C/C=C(C)/C=C/C=C(C)/C=C/C1=C(C)CCCC1(C)C
- tumour outcome (control, treated, inhibition, significance) (Carcinogen: 4-NITROQUINOLINE-1-OXIDE, 56-57-5, 0.05% IN DRINKING WATER AD LIBITUM (STUDY DURATION: 30 WK), Route [Inhibitor]: ORAL, Strain/Sex: DDY/MALE, Target Tissue: Type of Lesion: LUNG: TUMOR, Dose [Carcinogen]: 10 MG/KG BW IN OLIVE OIL/CHOLESTEROL (20:1) ONCE, Promoter: GLYCEROL, 56-81-5): 94%, 73%, 22%, not significant
- tumour outcome (control, treated, inhibition, significance) (Carcinogen: 4-NITROQUINOLINE-1-OXIDE, 56-57-5, 0.05% IN DRINKING WATER BEGINNING 5 WK POST CARCINOGEN TREATMENT AND CONTINUING FOR 25 WK (STUDY DURATION: 30 WK), Route [Inhibitor]: ORAL, Strain/Sex: DDY/MALE, Target Tissue: Type of Lesion: LUNG: TUMORS, Dose [Carcinogen]: 10 MG/KG BW IN OLIVE OIL AND CHOLESTEROL (20:1) ONCE, Promoter: NONE USED): 94%, 73%, 22%, not calculated
- tumour outcome (control, treated, inhibition, significance) (Carcinogen: 7,12-DIMETHYLBENZ[A]ANTHRACENE, 57-97-6, 0.05% IN DRINKING WATER AD LIBITUM FOR 30 WK BEGINNING 1 WK POST CARCINOGEN DOSE (STUDY DURATION: 31 WK), Route [Inhibitor]: ORAL, Strain/Sex: ICR/FEMALE, Target Tissue: Type of Lesion: SKIN: TUMOR, Dose [Carcinogen]: 100 UG ONCE, Promoter: 12-O-TETRADECANOYLPHORBOL-13-ACETATE, 16561-29-8): 13/16 (81%), 7/16 (44%), 46%, not significant
- tumour outcome (control, treated, inhibition, significance) (Carcinogen: 7,12-DIMETHYLBENZ[A]ANTHRACENE, 57-97-6, 200 NMOL IN 200 µL ACETONE 2/WK BEGINNING 1 WK POST CARCINOGEN DOSE APPLIED SIMULTANEOUSLY WITH PROMOTER FOR 20 WK (S, Route [Inhibitor]: DERMAL, Strain/Sex: ICR/?, Target Tissue: Type of Lesion: SKIN: PAPILLOMA, Dose [Carcinogen]: 100 UG ONCE, Promoter: 12-O-TETRADECANOYLPHORBOL-13-ACETATE, 16561-29-8): 69%, 25%, 64%, not calculated
- tumour outcome (control, treated, inhibition, significance) (Carcinogen: 7,12-DIMETHYLBENZ[A]ANTHRACENE, 57-97-6, 200 NMOL IN 200 µL ACETONE 2/WK FOR 40 WK APPLIED SIMULTANEOUSLY WITH PROMOTER BEGINNING 1 WK POST CARCINOGEN DOSE (S, Route [Inhibitor]: DERMAL, Strain/Sex: ICR/FEMALE, Target Tissue: Type of Lesion: SKIN: TUMOR, Dose [Carcinogen]: 100 UG ONCE, Promoter: 12-O-TETRADECANOYLPHORBOL-13-ACETATE, 16561-29-8): 10/15 (67%), 5/15 (33%), 51%, p<0.01
- tumour outcome (control, treated, inhibition, significance) (Carcinogen: 7,12-DIMETHYLBENZ[A]ANTHRACENE, 57-97-6, 400 NMOL IN 200 µL ACETONE 2/WK BEGINNING 1 WK POST CARCINOGEN DOSE APPLIED SIMULTANEOUSLY WITH PROMOTER FOR 20 WK (S, Route [Inhibitor]: DERMAL, Strain/Sex: ICR/?, Target Tissue: Type of Lesion: SKIN: PAPILLOMA, Dose [Carcinogen]: 100 UG ONCE, Promoter: 12-O-TETRADECANOYLPHORBOL-13-ACETATE, 16561-29-8): 69%, 13%, 81%, not calculated
- tumour outcome (control, treated, inhibition, significance) (Carcinogen: NONE USED, 0.005% IN DRINKING WATER AD LIBITUM FOR 40 WK (STUDY DURATION: 40 WK), Route [Inhibitor]: ORAL, Strain/Sex: C3H/HE/MALE, Target Tissue: Type of Lesion: LIVER: TUMOR, Promoter: NONE USED): 100%, 100%, 0%, not significant
- tumour outcome (control, treated, inhibition, significance) (Carcinogen: NONE USED, 0.005% IN DRINKING WATER FOR 40 WK (STUDY DURATION: 40 WK), Route [Inhibitor]: ORAL, Strain/Sex: C3H/HE/MALE, Target Tissue: Type of Lesion: LIVER: TUMORS, Promoter: NONE USED): 16/16 (100%), 15/15 (100%), 0%, not significant
- tumour outcome (control, treated, inhibition, significance) (Carcinogen: NONE USED, 0.05% IN DRINKING WATER AD LIBITUM FOR 40 WK (STUDY DURATION: 40 WK), Route [Inhibitor]: ORAL, Strain/Sex: C3H/HE/MALE, Target Tissue: Type of Lesion: LIVER: TUMOR, Promoter: NONE USED): 100%, 94%, 6%, not significant
- tumour outcome (control, treated, inhibition, significance) (Carcinogen: NONE USED, 0.05% IN DRINKING WATER FOR 40 WK (STUDY DURATION: 40 WK), Route [Inhibitor]: ORAL, Strain/Sex: C3H/HE/MALE, Target Tissue: Type of Lesion: LIVER: TUMORS, Promoter: NONE USED): 16/16 (100%), 16/17 (94%), 6%, not calculated
